US20240101592A1, “COMPOSITIONS AND METHODS FOR TREATING CNS DISORDERS” (Sage Therapeutics, Inc., priority 2020, published 2024)

biological target: GABAA receptor ([35S]-TBPS binding, rat brain cortical membranes); assay: Steroid inhibition of [35S]-TBPS binding; details: 3 nM [35S]-TBPS, in the presence of 5 mM GABA, 90 min at room temp
Method: Steroid Inhibition of TBPS Binding
[^35S]-t-Butylbicyclophosphorothionate (TBPS) binding assays using rat brain cortical membranes in the presence of 5 mM GABA has been described (Gee et al, J. Pharmacol. Exp. Ther. 1987, 241, 346-353; Hawkinson et al, Mol. Pharmacol. 1994, 46, 977-985; Lewin, A. H et al., Mol. Pharmacol. 1989, 35, 189-194).
Briefly, cortices are rapidly removed following decapitation of carbon dioxide-anesthetized Sprague-Dawley rats (200-250 g). The cortices are homogenized in 10 volumes of ice-cold 0.32 M sucrose using a glass/teflon homogenizer and centrifuged at 1500×g for 10 min at 4° C. The resultant supernatants are centrifuged at 10,000×g for 20 min at 4° C. to obtain the P2 pellets. The P2 pellets are resuspended in 200 mM NaCl/50 mM Na—K phosphate pH 7.4 buffer and centrifuged at 10,000×g for 10 min at 4° C. This washing procedure is repeated twice and the pellets are resuspended in 10 volumes of buffer. Aliquots ([…]) of the membrane suspensions are incubated with 3 nM [^35S]-TBPS and […] aliquots of test drug dissolved in dimethyl sulfoxide (DMSO) (final 0.5%) in the presence of 5 mM GABA. The incubation is brought to a final volume of 1.0 mL with buffer. Nonspecific binding is determined in the presence of […] and ranged from 15 to 25%. Following a 90 min incubation at room temp, the assays are terminated by filtration through glass fiber filters (Schleicher and Schuell No. 32) using a cell harvester (Brandel) and rinsed three times with ice-cold buffer. Filter bound radioactivity is measured by liquid scintillation spectrometry. Non-linear curve fitting of the overall data for each drug averaged for each concentration is done using Prism (GraphPad). […] The concentration of test compound producing 50% inhibition (IC50) of specific binding and the maximal extent of inhibition (Imax) are determined for the individual experiments with the same model used for the overall data and then the means±SEM.s of the individual experiments are calculated.
Various compounds are or can be screened to determine their potential as modulators of [^35S]-TBPS binding in vitro. These assays are or can be performed in accordance with the above.

First: C[C@@]1(O)CC[C@H]2[C@H](CC[C@@H]3[C@@H]2CC[C@]2(C)[C@@H]([C@H]4C[C@@H]4Cn4cc(C#N)cn4)CC[C@@H]32)C1 [Compound No. 24, 1-(((1S,2R)-2-((3R,5R,8R,9R,10S,13S,14S,17R)-3-hydroxy-3,13-dimethylhexadecahydro-1H-cyclopenta[a]phenanthren-17-yl)cyclopropyl)methyl)-1H-pyrazole-4-carbonitrile]
Second: Cc1nnnn1C[C@@H]1C[C@H]1[C@H]1CC[C@H]2[C@@H]3CC[C@@H]4C[C@](C)(O)CC[C@@H]4[C@H]3CC[C@]12C [Compound No. 27, (3R,5R,8R,9R,10S,13S,14S,17R)-3,13-dimethyl-17-((1S,2R)-2-((5-methyl-1H-tetrazol-1-yl)methyl)cyclopropyl)hexadecahydro-1H-cyclopenta[a]phenanthren-3-ol]
The IC50 of the first is lower: less than 100 nM for the first, 100 to 1000 nM for the second. The first is the more potent here.

C[C@@]1(O)CC[C@H]2[C@H](CC[C@@H]3[C@@H]2CC[C@@]2(C)[C@H]3[C@@H]3C[C@@H]3[C@@H]2[C@@](C)(O)Cn2cc(C#N)cn2)C1 (single isomer, unassigned) [Compound No. 13] and C[C@@]1(O)CC[C@H]2[C@H](CC[C@@H]3[C@@H]2CC[C@@]2(C)[C@H]3C[C@H]3C[C@H]3[C@@H]2[C@](C)(O)Cn2cc(C#N)cn2)C1 [Compound No. 2, 1-((S)-2-hydroxy-2-((2R,4aS,4bR,6aS,7S,7aR,8aR,9aS,9bR,11aR)-2-hydroxy-2,6a-dimethyloctadecahydro-1H-cyclopropa[b]chrysen-7-yl)propyl)-1H-pyrazole-4-carbonitrile] cannot be ordered by IC50: less than 100 nM for the first, less than 100 nM for the second.

CCC[C@@]1(O)CC[C@@]2(C)[C@@H](CC[C@H]3[C@@H]4[C@@H]5C[C@@H]5[C@H]([C@@](C)(O)Cn5cc(C#N)cn5)[C@@]4(C)CC[C@@H]32)C1 [Compound No. 14, 1-((R)-2-hydroxy-2-((2R,4aS,4bS,6aS,7S,7aS,8aR,8bS,8cR,10aS)-2-hydroxy-4a,6a-dimethyl-2-propyloctadecahydrocyclopropa[4,5]cyclopenta[1,2-a]phenanthren-7-yl)propyl)-1H-pyrazole-4-carbonitrile] gave an IC50 greater than 1000 nM.
